The logP is a log measure of how a compound divides between an organic and an aqueous phase. Low readings indicate a more hydrophilic compound, high ones a more lipophilic compound. In general, logD refers to lipophilicity at a set pH, counting ionised and neutral species. Read a high logD as a more lipophilic compound.

SMILES strings stand for the structures.

One data set in a line: method code SF-AS, from DOI: 10.1016/0223-5234(89)90112-8.
Conditions: not given
Regarding `CN1CCOC(O)(c2cccc(C(F)(F)F)c2)C1` (stereo not drawn), the lipophilicity (logP) was found to be 1.39. On to `CN1CCOC(OCCc2ccccc2)(c2ccccc2)C1` (stereo not drawn), for which the logP amounted to 2.11. For the molecule `CCCOC1(c2ccc(Br)cc2)CN(C)CCO1` (stereo not drawn), the logP was found to be 2.19. The same measure, in the same setting: the same measure for `CCCCCCCCOC1(c2ccccc2)CN(C)CCO1` (stereo not drawn): 2.32; for `CN1CCOC(O)(c2ccc(Br)cc2)C1` (stereo not drawn): 1.57; for `CC1C(c2ccccc2)OC(O)(c2ccccc2)CN1C` (stereo not drawn): 1.87.

Still in this data set, the particulars now being: pH 7.4.
`CN1CCOC(OCc2ccccc2)(c2ccccc2)C1` (stereo not drawn) came in with a logD of 2.05. Still for that read-out and setting: the same measure for `CN1CCOC(O)C1c1ccccc1` (stereo not drawn): 0.97.

For the molecule `C=CCOC1(c2ccccc2)CN(C)CCO1` (stereo not drawn), the log distribution coefficient (logD) turned out to be 1.92.

Regarding `CCOC1(c2ccccc2)OCCN(C)C1C` (stereo not drawn), the log distribution coefficient (logD) worked out at 1.74. For `CCCOC1(c2ccccc2)CN(C)CCO1` (stereo not drawn), the log distribution coefficient (logD) was 1.95. Regarding `CC1CN(C)CC(O)(c2ccccc2)O1` (stereo not drawn), the pH-dependent lipophilicity (logD) amounted to 1.48. On the same count and under the same terms, the same measure for `CC1N(C)CCOC1(O)c1ccccc1` (stereo not drawn): 1.31. `CCCCOC1(c2ccccc2)CN(C)CCO1` (stereo not drawn) gave a logD of 2.05.

In turn, `CC(C)COC1(c2ccccc2)CN(C)CCO1` (stereo not drawn) came in with a logD of 1.98. The logD values of the last two molecules are within 0.2 log units of each other. The same measure, in the same setting: the same measure for `CN1CCOC(O)(c2ccccc2)C1` (stereo not drawn): 1.3. As for `CCCOC1(c2ccccc2)CN(C)CC(C)O1` (stereo not drawn), the logD stood at 1.96.

Molecule `C#CCOC1(c2ccccc2)CN(C)CCO1` (stereo not drawn) gave a pH-dependent lipophilicity (logD) of 1.76.

Source of the values: the SangsterLogP compilation.
